In ChEMBL document CHEMBL3885881, “DrugMatrix”:

Organism: Rattus norvegicus
Assay: DrugMatrix - Regimen: Daily Repeat
Type: toxicity, organism-based, Sprague-Dawley
Set-up: regimen Daily Repeat, gender Male, age 6-8 weeks
Settings: in vivo, po, route oral GAVAGE, vehicle .5 % CMC; for ABSOLUTE BASOPHIL / ABSOLUTE EOSINOPHIL / ABSOLUTE LYMPHOCYTE / ABSOLUTE MONOCYTE / ABSOLUTE SEGMENTED NEUTROPHIL / BASOPHIL / EOSINOPHIL / ERYTHROCYTE COUNT / HEMATOCRIT / HEMOGLOBIN / LEUKOCYTE COUNT / LYMPHOCYTE / MEAN CORPUSCULAR HEMOGLOBIN / MEAN CORPUSCULAR HEMOGLOBIN CONCENTRATION / MEAN CORPUSCULAR VOLUME / MONOCYTE / NEUTROPHIL / NUCLEATED RED BLOOD CELLS / PLATELET COUNT: tissue Blood; for ALANINE AMINOTRANSFERASE / ALBUMIN / ALKALINE PHOSPHATASE / ASPARTATE AMINOTRANSFERASE / BLOOD UREA NITROGEN / CARBON DIOXIDE / CHLORIDE / CHOLESTEROL / CREATINE PHOSPHOKINASE / CREATININE / GLUCOSE / LACTATE DEHYDROGENASE / LIPASE / PHOSPHORUS / POTASSIUM / SODIUM / TOTAL BILIRUBIN / TOTAL PROTEIN / URIC ACID: tissue Plasma
[1] = 88 mg/kg, 72 h, dose level Low, time 3 day
[2] = 88 mg/kg, 120 h, dose level Low, time 5 day
[3] = 750 mg/kg, 72 h, dose level High, time 3 day
[4] = 750 mg/kg, 120 h, dose level High, time 5 day

## CCC1(c2ccccc2)C(=O)NCNC1=O [PRIMIDONE]
[1]
  ABSOLUTE BASOPHIL: 0 CELLS/uL
  ABSOLUTE EOSINOPHIL: 207.67 CELLS/uL
  ABSOLUTE LYMPHOCYTE: 14556.33 CELLS/uL
  ABSOLUTE MONOCYTE: 206 CELLS/uL
  ABSOLUTE SEGMENTED NEUTROPHIL: 1063.33 CELLS/uL
  BASOPHIL: 0%
  EOSINOPHIL: 1.33%
  ERYTHROCYTE COUNT: 5.49 x10E6/uL
  HEMATOCRIT: 34.53%
  HEMOGLOBIN: 13.03 G/DL
  LEUKOCYTE COUNT: 16.03 x10E3/uL
  LYMPHOCYTE: 90.67%
  MEAN CORPUSCULAR HEMOGLOBIN: 23.87 pg
  MEAN CORPUSCULAR HEMOGLOBIN CONCENTRATION: 37.8 G/DL
  MEAN CORPUSCULAR VOLUME: 63.07 fL
  MONOCYTE: 1.33%
  NEUTROPHIL: 6.67%
  NUCLEATED RED BLOOD CELLS: 0 /100WBC
  PLATELET COUNT: 1338 x10E3/uL
  ALANINE AMINOTRANSFERASE: 44.67 u/L
  ALBUMIN: 4.17 G/DL
  ALKALINE PHOSPHATASE: 329.33 u/L
  ASPARTATE AMINOTRANSFERASE: 77.33 u/L
  BLOOD UREA NITROGEN: 15 mg/dL
  CARBON DIOXIDE: 25.33 mmol/L
  CHLORIDE: 105.33 MEQ/L
  CHOLESTEROL: 72 mg/dL
  CREATINE PHOSPHOKINASE: 356 u/L
  CREATININE: 0.16 mg/dL
  GLUCOSE: 157.67 mg/dL
  LACTATE DEHYDROGENASE: 80 u/L
  LIPASE: 9 u/L
  PHOSPHORUS: 13.8 mg/dL
  POTASSIUM: 6.58 MEQ/L
  SODIUM: 144.83 MEQ/L
  TOTAL BILIRUBIN: 0.2 mg/dL
  TOTAL PROTEIN: 5.83 G/DL
  URIC ACID: 1.93 mg/dL
[2]
  ABSOLUTE BASOPHIL: 0 CELLS/uL
  ABSOLUTE EOSINOPHIL: 87 CELLS/uL
  ABSOLUTE LYMPHOCYTE: 14869 CELLS/uL
  ABSOLUTE MONOCYTE: 252 CELLS/uL
  ABSOLUTE SEGMENTED NEUTROPHIL: 1292 CELLS/uL
  BASOPHIL: 0%
  EOSINOPHIL: 0.33%
  ERYTHROCYTE COUNT: 5.5 x10E6/uL
  HEMATOCRIT: 34.07%
  HEMOGLOBIN: 13.03 G/DL
  LEUKOCYTE COUNT: 16.5 x10E3/uL
  LYMPHOCYTE: 91.33%
  MEAN CORPUSCULAR HEMOGLOBIN: 23.67 pg
  MEAN CORPUSCULAR HEMOGLOBIN CONCENTRATION: 38.3 G/DL
  MEAN CORPUSCULAR VOLUME: 61.9 fL
  MONOCYTE: 1.33%
  NEUTROPHIL: 7%
  NUCLEATED RED BLOOD CELLS: 0 /100WBC
  PLATELET COUNT: 1298.67 x10E3/uL
  ALANINE AMINOTRANSFERASE: 49.67 u/L
  ALBUMIN: 3.93 G/DL
  ALKALINE PHOSPHATASE: 300.67 u/L
  ASPARTATE AMINOTRANSFERASE: 79.67 u/L
  BLOOD UREA NITROGEN: 16.67 mg/dL
  CARBON DIOXIDE: 27.67 mmol/L
  CHLORIDE: 106.67 MEQ/L
  CHOLESTEROL: 63.67 mg/dL
  CREATINE PHOSPHOKINASE: 421.67 u/L
  CREATININE: 0.21 mg/dL
  GLUCOSE: 162 mg/dL
  LACTATE DEHYDROGENASE: 161 u/L
  LIPASE: 8.67 u/L
  PHOSPHORUS: 13.87 mg/dL
  POTASSIUM: 6.54 MEQ/L
  SODIUM: 145.5 MEQ/L
  TOTAL BILIRUBIN: 0.2 mg/dL
  TOTAL PROTEIN: 6.03 G/DL
  URIC ACID: 2.03 mg/dL
[3]
  ABSOLUTE BASOPHIL: 0 CELLS/uL
  ABSOLUTE EOSINOPHIL: 107 CELLS/uL
  ABSOLUTE LYMPHOCYTE: 6934.67 CELLS/uL
  ABSOLUTE MONOCYTE: 246.33 CELLS/uL
  ABSOLUTE SEGMENTED NEUTROPHIL: 1312 CELLS/uL
  BASOPHIL: 0%
  EOSINOPHIL: 1%
  ERYTHROCYTE COUNT: 6.1 x10E6/uL
  HEMATOCRIT: 37.33%
  HEMOGLOBIN: 14.33 G/DL
  LEUKOCYTE COUNT: 8.6 x10E3/uL
  LYMPHOCYTE: 79.33%
  MEAN CORPUSCULAR HEMOGLOBIN: 23.6 pg
  MEAN CORPUSCULAR HEMOGLOBIN CONCENTRATION: 38.3 G/DL
  MEAN CORPUSCULAR VOLUME: 61.67 fL
  MONOCYTE: 3%
  NEUTROPHIL: 16.67%
  NUCLEATED RED BLOOD CELLS: 0.33 /100WBC
  PLATELET COUNT: 1338.67 x10E3/uL
  ALANINE AMINOTRANSFERASE: 48.5 u/L
  ALBUMIN: 4.73 G/DL
  ALKALINE PHOSPHATASE: 307 u/L
  ASPARTATE AMINOTRANSFERASE: 85 u/L
  BLOOD UREA NITROGEN: 15.5 mg/dL
  CARBON DIOXIDE: 26.33 mmol/L
  CHLORIDE: 107.5 MEQ/L
  CHOLESTEROL: 66.67 mg/dL
  CREATINE PHOSPHOKINASE: 138 u/L
  CREATININE: 0.24 mg/dL
  GLUCOSE: 144.33 mg/dL
  LACTATE DEHYDROGENASE: 137.33 u/L
  LIPASE: 8.5 u/L
  PHOSPHORUS: 10.5 mg/dL
  POTASSIUM: 5.94 MEQ/L
  SODIUM: 150.9 MEQ/L
  TOTAL BILIRUBIN: 0.3 mg/dL
  TOTAL PROTEIN: 6.2 G/DL
  URIC ACID: 1 mg/dL
[4]
  ABSOLUTE BASOPHIL: 0 CELLS/uL
  ABSOLUTE EOSINOPHIL: 136.67 CELLS/uL
  ABSOLUTE LYMPHOCYTE: 11870 CELLS/uL
  ABSOLUTE MONOCYTE: 38.33 CELLS/uL
  ABSOLUTE SEGMENTED NEUTROPHIL: 755 CELLS/uL
  BASOPHIL: 0%
  EOSINOPHIL: 1%
  ERYTHROCYTE COUNT: 5.98 x10E6/uL
  HEMATOCRIT: 37.3%
  HEMOGLOBIN: 13.87 G/DL
  LEUKOCYTE COUNT: 12.8 x10E3/uL
  LYMPHOCYTE: 92.67%
  MEAN CORPUSCULAR HEMOGLOBIN: 23.17 pg
  MEAN CORPUSCULAR HEMOGLOBIN CONCENTRATION: 37.17 G/DL
  MEAN CORPUSCULAR VOLUME: 62.37 fL
  MONOCYTE: 0.33%
  NEUTROPHIL: 6%
  NUCLEATED RED BLOOD CELLS: 0 /100WBC
  PLATELET COUNT: 1320.33 x10E3/uL
  ALANINE AMINOTRANSFERASE: 59.67 u/L
  ALBUMIN: 4.13 G/DL
  ALKALINE PHOSPHATASE: 421 u/L
  ASPARTATE AMINOTRANSFERASE: 98.33 u/L
  BLOOD UREA NITROGEN: 15 mg/dL
  CARBON DIOXIDE: 25.33 mmol/L
  CHLORIDE: 105.33 MEQ/L
  CHOLESTEROL: 68.33 mg/dL
  CREATINE PHOSPHOKINASE: 186.67 u/L
  CREATININE: 0.18 mg/dL
  GLUCOSE: 159.33 mg/dL
  LACTATE DEHYDROGENASE: 96 u/L
  LIPASE: 9 u/L
  PHOSPHORUS: 13.2 mg/dL
  POTASSIUM: 6.32 MEQ/L
  SODIUM: 146.03 MEQ/L
  TOTAL BILIRUBIN: 0.2 mg/dL
  TOTAL PROTEIN: 6.17 G/DL
  URIC ACID: 2.07 mg/dL
